The subject of data set [1] is CRE and non-CRE strains of K. pneumoniae and E. coli. The class given is cell-based. The note with it: standard CLSI assay conditions. How it is done: (§1) Bacterial strains were obtained from American Type Culture Collection. K. pneumoniae strains included BAA-1705 (blaKPC-2, hypermucoid), BAA-2146 (blaNDM-1), BAA-700603 (SHV-18, extended spectrum β-lactamase, ESBL), and BAA-1706 (non-CRE reference strain). E. coli strains included BAA-2340 (blaKPC-2), BAA-2471 (blaNDM-1), and ML35 (non-CRE reference strain).
(§2) Minimum inhibitory concentration (MIC) assays were performed ± 50% heat-inactivated mouse serum using Clinical and Laboratory Standards Institute (CLSI; document M07-A9) protocols. Bacteria (5 × 10^5 CFU/ml) were incubated with antibiotics or peptide for 20 h at 37 °C, and bacterial growth was determined by A620 using a SpectraMax M5e plate reader.

The test system of data set [2] is Kp-1705 (K. pneumoniae BAA-1705). The data set can be described thus: Kp-1705 bacteremic sepsis, survival. The class given is in vivo, BALB/c mice. The note with it: Kp-1705 i.p. in BALB/c mice; single i.p. dose 1.25 mg/kg 1 h p.i. How it is done:
BALB/c mice (Jackson Laboratories) 8–10 weeks of age were acclimated (3–5 to a cage for at least 5 days prior to infection) in a thermostatically controlled room with 12 h light/dark cycle. Cryopreserved K. pneumoniae cells were thawed and adjusted to a density of 6–10 × 10^8 CFU/ml, confirmed by plating on trypticase soy agar (TSA) plates. E. coli BAA-2340 was grown to log-phase in trypticase soy broth, pelleted, washed with PBS, and resuspended in PBS at 0.5–1 × 10^9 CFU/ml. Mice were infected by i.p. injection of 2–5 × 10^8 CFU of Kp-1705 or 3–6 × 10^7 CFU of E. coli BAA-2340 using a 28 g needle in a volume of 0.5 ml. Post-infection, mice were observed three times a day for at least 4 days and then daily for 28 days. Mice were euthanized when they became moribund. All experiments used both male and female mice and were repeated at least twice.

For data set [3], the system named is K. pneumoniae BAA-2146 (NDM-1). The data set can be described thus: microbe, parasite or virus in culture. The class given is cell-based. On the procedure: as §1, §2
In another data set the test system is K. pneumoniae BAA-1706. The data set can be described thus: microbe, parasite or virus in culture. The class given is cell-based. How it is done: as §1, §2
The subject of another data set is E. coli ML35. The data set can be described thus: microbe, parasite or virus in culture. The class given is cell-based. To be noted: E. coli ML35, no MDR factor. How it is done: as §1, §2
Data set [4] has as its system K. pneumoniae 700603 (ESBL). Put plainly: microbe, parasite or virus in culture. The data set is classed as cell-based. On the procedure:
as §1, §2

Data set [5] has as its system K. pneumoniae BAA-1705 (KPC-2). Put plainly: microbe, parasite or virus in culture. The data set is classed as cell-based. The note with it: 37 °C. How it is done:
as §1, §2

The test system of another data set is E. coli BAA-2340 (KPC-2). Put plainly: microbe, parasite or virus in culture. The class given is cell-based. How it is done:
as §1, §2

In the next data set the test system is E. coli BAA-2471 (NDM-1). The data set can be described thus: microbe, parasite or virus in culture. The data set is classed as cell-based. How it is done:
as §1, §2

For another data set, the system named is disseminated candidiasis. To be noted: mouse models of disseminated candidiasis; cited from earlier work. The text has this: MTD12813 is a bioinspired macrocyclic peptide that is structurally related to naturally occurring θ-defensins. RTD-1, the prototype θ-defensin, was identified as a broad-spectrum antimicrobial peptide in vitro[8],[9]. […] Mechanisms implicated in the moderation of cytokine-driven inflammation include modulation of NFκB and MAPK pathways, suppression of TNF release via the inhibition of the pro-TNF sheddase TACE (ADAM17)[26], and dis ...

Setting [6] is: 50% heat inactivated mouse serum.
Setting [7] is: CLSI, 20 h, 37 °C, A620, no serum.
[8] abbreviates: K. pneumoniae BAA-1706, no MDR factor, 50% heat inactivated mouse serum.
The mark [9] stands for this setting: K. pneumoniae BAA-1706, no MDR factor, CLSI, 20 h, 37 °C, A620, no serum.
Setting [10] is: CLSI M07-A9, 5 × 10^5 CFU/ml, 20 h, A620, no serum.
Where [11] appears, read: in the presence of 50% heat inactivated mouse serum, 20 h, A620.
Setting [12] is: E. coli BAA-2340, KPC-2, 50% heat inactivated mouse serum.
Setting [13] is: E. coli BAA-2340, KPC-2, CLSI, 20 h, 37 °C, A620, no serum.
[14] abbreviates: Klebsiella pneumoniae, BAA2146, 50% heat inactivated mouse serum, read-out: MIC.
[15] abbreviates: Klebsiella pneumoniae, BAA2146, CLSI, 20 h, 37 °C, A620, no serum, read-out: MIC.
Where [16] appears, read: Klebsiella pneumoniae, BAA1706, K. pneumoniae BAA-1706, no MDR factor, 50% heat inactivated mouse serum, read-out: MIC.
The mark [17] stands for this setting: Escherichia coli, 50% heat inactivated mouse serum, read-out: MIC.
The mark [18] stands for this setting: Escherichia coli, CLSI, 20 h, 37 °C, A620, no serum, read-out: MIC.
Where [19] appears, read: Klebsiella pneumoniae, 50% heat inactivated mouse serum, read-out: MIC.
Where [20] appears, read: Klebsiella pneumoniae, CLSI, 20 h, 37 °C, A620, no serum, read-out: MIC.
[21] abbreviates: Klebsiella pneumoniae, BAA1705, CLSI M07-A9, 5 × 10^5 CFU/ml, 20 h, A620, no serum, read-out: MIC.
The mark [22] stands for this setting: Escherichia coli, BAA2471, 50% heat inactivated mouse serum, read-out: MIC.
The mark [23] stands for this setting: Escherichia coli, BAA2471, CLSI, 20 h, 37 °C, A620, no serum, read-out: MIC.

Values after ≈ are worked out from the molar mass of the structure shown. Where two headings read alike, the source gives them in different places. Where a SMILES comes first, the peptide text is derived from it. Bridges are numbered along the chain shown (N, C = ends).

For the molecule Polymyxin B, in data set [1], the “MIC against all seven organisms of the panel” value is under 0.78 µg/mL. For the same molecule, the “long term (≥ 28 days) survival” value in [2] came out at 95%. Further, the MIC (in [3] (setting [6]); in data set [3] (setting [7]); in the data set on K. pneumoniae BAA-1706 (setting [8]); against K. pneumoniae BAA-1706 (setting [9]); against E. coli ML35 (setting [6]); against E. coli ML35 (setting [7])) was under 0.78 µg/mL each time. Moreover, the MIC (in [4] (setting [6]); in data set [4] (setting [7]); in data set [5] (setting [10]); in data set [5] (setting [11]); in the data set with E. coli BAA-2340 (KPC-2) (setting [12]); against E. coli BAA-2340 (KPC-2) (setting [13])) was under 0.78 µg/mL throughout. Moreover, the MIC against E. coli BAA-2471 (NDM-1) (setting [6]) and in the data set with E. coli BAA-2471 (NDM-1) (setting [7]) was under 0.78 µg/mL throughout.

Regarding `C[C@@H](O)[C@H]1C(=O)N2C(C(=O)O)=C(SCCN=CN)C[C@H]12` [Imipenem], the “long term (≥ 28 days) survival” value in data set [2] is listed as “neither carbapenem provided significant survival benefit”. For the same molecule, the MIC was 25 µg/mL (≈ 83.5 µM) in data set [3] (setting [14]); over 100 µg/mL in [3] (setting [15]); under 0.78 µg/mL with K. pneumoniae BAA-1706 (setting [16]); 3.13 µg/mL (≈ 10.5 µM) in the data set with K. pneumoniae BAA-1706 (Klebsiella pneumoniae, BAA1706, K. pneumoniae BAA-1706, no MDR factor, CLSI, 20 h, 37 °C, A620, no serum, read-out: MIC); under 0.78 µg/mL with E. coli ML35 (setting [17]); under 0.78 µg/mL in the data set on E. coli ML35 (setting [18]). Moreover, the MIC in data set [4] (setting [19]) was under 0.78 µg/mL; in data set [4] (setting [20]), under 0.78 µg/mL; in data set [5] (Klebsiella pneumoniae, BAA1705, 20 h, in the presence of 50% heat inactivated mouse serum, A620) it was 12.5 µg/mL; in [5] (setting [21]) it was over 100 µg/mL; in the data set with E. coli BAA-2340 (KPC-2) (Escherichia coli, BAA2340), 6.25 µg/mL (≈ 20.9 µM); with E. coli BAA-2340 (KPC-2) (Escherichia coli, BAA2340, E. coli BAA-2340, KPC-2, CLSI, 20 h, 37 °C, A620, no serum, read-out: MIC) it was 25 µg/mL (≈ 83.5 µM). The MIC turned out to be 25 µg/mL (≈ 83.5 µM) in the data set with E. coli BAA-2471 (NDM-1) (setting [22]) and 50 µg/mL (≈ 167 µM) in the data set with E. coli BAA-2471 (NDM-1) (setting [23]).

As for `CC[C@H](C)[C@@H]1NC(=O)[C@@H]2CSSC[C@H](NC(=O)[C@H](CCCNC(=N)N)NC(=O)[C@@H]3CSSC[C@H](NC1=O)C(=O)N[C@@H]([C@@H](C)O)C(=O)N[C@@H](CCCNC(=N)N)C(=O)NCC(=O)N[C@@H](Cc1ccccc1)C(=O)N3)C(=O)N[C@@H](CC(C)C)C(=O)N[C@H]1CSSC[C@H](NC(=O)[C@H](C(C)C)NC(=O)CNC(=O)[C@H](CCCNC(=N)N)NC(=O)[C@H](CCCNC(=N)N)NC1=O)C(=O)N[C@@H](CCCNC(=N)N)C(=O)N2` [RTD-1] (cyclo(GFCRCLCRRGVCRCICTR); disulfide 3-16, 5-14, 7-12), in the data set with disseminated candidiasis, the “plasma Cmax as share of the MIC of the peptide” value was under 1%. The MIC is over 100 µg/mL in data set [3] (setting [6]); 100 µg/mL (≈ 48 µM) in [3] (setting [7]); over 100 µg/mL in the data set on K. pneumoniae BAA-1706 (setting [8]); over 100 µg/mL against K. pneumoniae BAA-1706 (setting [9]); over 100 µg/mL in the data set on E. coli ML35 (setting [6]); 25 µg/mL (≈ 12 µM) in the data set with E. coli ML35 (setting [7]). In addition, the MIC in data set [4] (setting [6]) was over 100 µg/mL; in data set [4] (setting [7]), over 100 µg/mL; in data set [5] (setting [10]), over 100 µg/mL; in data set [5] (setting [11]), over 100 µg/mL; with E. coli BAA-2340 (KPC-2) (setting [12]), over 100 µg/mL; with E. coli BAA-2340 (KPC-2) (setting [13]), 50 µg/mL (≈ 24 µM). Also, the values for the MIC against E. coli BAA-2471 (NDM-1) (setting [6]) and in the data set on E. coli BAA-2471 (NDM-1) (setting [7]) were over 100 µg/mL and 25 µg/mL (≈ 12 µM), respectively.

Colistin: in data set [1], the “MIC against all seven organisms of the panel” value was under 0.78 µg/mL. In addition, the “long term (≥ 28 days) survival” value in data set [2] was 100%. Besides, the MIC (in data set [3] (setting [6]); in data set [3] (setting [7]); against K. pneumoniae BAA-1706 (setting [8]); in the data set with K. pneumoniae BAA-1706 (setting [9]); against E. coli ML35 (setting [6]); against E. coli ML35 (setting [7])) was under 0.78 µg/mL throughout. Also, the MIC (in data set [4] (setting [6]); in data set [4] (setting [7]); in [5] (setting [10]); in data set [5] (setting [11]); with E. coli BAA-2340 (KPC-2) (setting [12]); against E. coli BAA-2340 (KPC-2) (setting [13])) was under 0.78 µg/mL each time. Moreover, the MIC in the data set with E. coli BAA-2471 (NDM-1) (setting [6]) and against E. coli BAA-2471 (NDM-1) (setting [7]) was under 0.78 µg/mL throughout.

As for `C[C@@H](O)[C@H]1C(=O)N2C(C(=O)O)=C(S[C@@H]3CN[C@H](C(=O)N(C)C)C3)[C@H](C)[C@H]12` [Meropenem], the “long term (≥ 28 days) survival” value in data set [2] is listed as “neither carbapenem provided significant survival benefit”. Further, the MIC was over 100 µg/mL in [3] (setting [14]); 100 µg/mL (≈ 261 µM) in [3] (setting [15]); 1.56 µg/mL (≈ 4.07 µM) against K. pneumoniae BAA-1706 (Klebsiella pneumoniae, BAA1706, 20 h); under 0.78 µg/mL in the data set with K. pneumoniae BAA-1706 (setting [16]); under 0.78 µg/mL in the data set on E. coli ML35 (setting [17]); under 0.78 µg/mL in the data set on E. coli ML35 (setting [18]). Moreover, the MIC in data set [4] (setting [19]) was under 0.78 µg/mL; in [4] (setting [20]), under 0.78 µg/mL; in data set [5] (setting [21]), 50 µg/mL (≈ 130 µM); in data set [5] (setting [11]) it was 50 µg/mL; with E. coli BAA-2340 (KPC-2) (Escherichia coli, BAA2340), 6.25 µg/mL (≈ 16.3 µM); in the data set with E. coli BAA-2340 (KPC-2) (Escherichia coli, BAA2340, 20 h), 6.25 µg/mL (≈ 16.3 µM). In addition, the MIC in the data set with E. coli BAA-2471 (NDM-1) (setting [22]) is over 100 µg/mL; in the data set with E. coli BAA-2471 (NDM-1) (setting [23]), 50 µg/mL (≈ 130 µM).

Values taken from publication PMC8648872, “A host-directed macrocyclic peptide therapeutic for MDR gram negative bacterial infections” (Scientific Reports, 2021).
